Source: article PMC6218581, “Resurrecting the Regulatory Properties of the Ostreococcus tauri ADP-Glucose Pyrophosphorylase Large Subunit” (Frontiers in Plant Science, 2018)

Legend:
OtaS/OtaL ADP-Glc PPase [1] = molecular target: T1, OtaS/OtaL ADP-Glc PPase (Ostreococcus tauri, UniProt A0A090M9E5+A0A096P9X2, A0A096P9X2:R476K, form not given); assay: ADP-[…]Glc formation, activation curve, Hill fit; type: biochemical; conditions: allosteric activator; 50 mM HEPPS pH 8.0, 10 mM MgCl2, 1 mM Glc1P, 2.5 mM ATP, 37°C, no Pi; read-out: A0.5
T1 construct: gene OT_ostta07g03070; heterotetramer alpha2beta2, co-expressed from pMAB5/OtaS and pMAB6/OtaL in E. coli AC70R1-504; DEAE and Resource PHE purification, no tag mentioned
T1 sequence (A0A096P9X2 entry or part of it R476K, form open): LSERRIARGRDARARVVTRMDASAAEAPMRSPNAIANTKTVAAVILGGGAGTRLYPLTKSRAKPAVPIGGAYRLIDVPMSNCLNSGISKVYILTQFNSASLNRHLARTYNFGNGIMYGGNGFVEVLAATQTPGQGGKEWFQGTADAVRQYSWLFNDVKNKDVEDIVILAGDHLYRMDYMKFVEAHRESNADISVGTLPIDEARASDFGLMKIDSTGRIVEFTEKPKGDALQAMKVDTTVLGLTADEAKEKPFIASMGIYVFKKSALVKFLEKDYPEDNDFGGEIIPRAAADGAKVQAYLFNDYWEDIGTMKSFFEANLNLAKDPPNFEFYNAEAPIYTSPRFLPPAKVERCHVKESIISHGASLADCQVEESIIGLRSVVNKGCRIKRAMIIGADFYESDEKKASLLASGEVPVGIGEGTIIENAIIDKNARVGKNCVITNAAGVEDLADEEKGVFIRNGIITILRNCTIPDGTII
T1 sequence (A0A090M9E5 entry or part of it, form open): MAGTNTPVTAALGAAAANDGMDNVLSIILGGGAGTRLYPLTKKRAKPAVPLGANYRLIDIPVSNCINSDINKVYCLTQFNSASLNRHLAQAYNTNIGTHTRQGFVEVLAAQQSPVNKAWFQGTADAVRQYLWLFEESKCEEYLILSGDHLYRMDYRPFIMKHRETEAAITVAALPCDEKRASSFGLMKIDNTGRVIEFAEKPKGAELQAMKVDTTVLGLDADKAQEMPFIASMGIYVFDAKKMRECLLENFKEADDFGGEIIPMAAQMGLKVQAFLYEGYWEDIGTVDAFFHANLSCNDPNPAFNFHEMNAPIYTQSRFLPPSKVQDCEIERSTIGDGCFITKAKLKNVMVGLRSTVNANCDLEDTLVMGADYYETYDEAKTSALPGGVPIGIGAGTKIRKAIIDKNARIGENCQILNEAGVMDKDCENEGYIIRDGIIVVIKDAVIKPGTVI

[2] = molecular target: T2, StuSK441A/OtaL hybrid heterotetramer (Solanum tuberosum; Ostreococcus tauri, UniProt A0A096P9X2+P23509, A0A096P9X2:R476K/P23509:K511A, form not given); assay: ADP-[…]Glc formation, activation curve, Hill fit; type: biochemical; conditions: read-out: A0.5; allosteric activator; 50 mM HEPPS pH 8.0, 10 mM MgCl2, 1 mM Glc1P, 2.5 mM ATP, 2 mM DTT, 37°C, no Pi
T2 construct: hybrid heterotetramer: potato tuber small subunit K441A co-expressed with O. tauri large subunit in E. coli AC70R1-504; purified
T2 sequence (P23509 73-521 K511A, form open): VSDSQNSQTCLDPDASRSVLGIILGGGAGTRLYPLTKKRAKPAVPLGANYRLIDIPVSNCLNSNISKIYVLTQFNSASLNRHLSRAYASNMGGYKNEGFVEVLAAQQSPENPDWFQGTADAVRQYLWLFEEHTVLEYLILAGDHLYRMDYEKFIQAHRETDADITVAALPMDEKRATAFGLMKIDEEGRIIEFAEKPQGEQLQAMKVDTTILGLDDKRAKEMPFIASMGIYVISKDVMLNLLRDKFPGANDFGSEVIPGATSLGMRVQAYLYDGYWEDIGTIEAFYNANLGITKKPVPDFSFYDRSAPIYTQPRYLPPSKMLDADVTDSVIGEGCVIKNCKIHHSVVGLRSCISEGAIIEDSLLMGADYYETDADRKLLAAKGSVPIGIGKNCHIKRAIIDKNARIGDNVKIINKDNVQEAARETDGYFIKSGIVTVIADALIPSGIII
T2 sequence (A0A096P9X2 entry or part of it R476K, form open): as the sequence (A0A096P9X2 entry or part of it R476K, form open) above

[3] = molecular target: T3, StuSK441A/OtaL hybrid heterotetramer (Solanum tuberosum; Ostreococcus tauri, UniProt A0A096P9X2+P23509, A0A096P9X2:L24M/P23509:K511A); assay: ADP-[…]Glc formation, activation curve, Hill fit; type: biochemical; conditions: read-out: A0.5; allosteric activator; 50 mM HEPPS pH 8.0, 10 mM MgCl2, 1 mM Glc1P, 2.5 mM ATP, 2 mM DTT, 37°C, no Pi
T3 construct: hybrid heterotetramer: potato tuber small subunit K441A co-expressed with O. tauri large subunit in E. coli AC70R1-504; purified
T3 sequence (A0A096P9X2 entry or part of it L24M): as the sequence (A0A096P9X2 entry or part of it R476K, form open) above, with L1M, K453R counted along it
T3 sequence (P23509 73-521 K511A): as the sequence (P23509 73-521 K511A, form open) above

OtaS/OtaL ADP-Glc PPase [4] = molecular target: T4, OtaS/OtaL ADP-Glc PPase (Ostreococcus tauri, UniProt A0A090M9E5+A0A096P9X2, A0A096P9X2:L24M); assay: ADP-[…]Glc formation, activation curve, Hill fit; type: biochemical; set-up: gene OT_ostta07g03070; heterotetramer alpha2beta2, co-expressed from pMAB5/OtaS and pMAB6/OtaL in E. coli AC70R1-504; DEAE and Resource PHE purification, no tag mentioned; conditions: allosteric activator; 50 mM HEPPS pH 8.0, 10 mM MgCl2, 1 mM Glc1P, 2.5 mM ATP, 37°C, no Pi; read-out: A0.5
T4 sequence (A0A090M9E5 entry or part of it): as the sequence (A0A090M9E5 entry or part of it, form open) above
T4 sequence (A0A096P9X2 entry or part of it L24M): as the sequence (A0A096P9X2 entry or part of it R476K, form open) above, with L1M, K453R counted along it

OtaS/OtaL ADP-Glc PPase [5] = molecular target: T5, OtaS/OtaL ADP-Glc PPase (Ostreococcus tauri, UniProt A0A090M9E5+A0A096P9X2, A0A096P9X2:R476K/A0A090M9E5:K508R, form not given); assay: ADP-[…]Glc formation, activation curve, Hill fit; type: biochemical; conditions: allosteric activator; 50 mM HEPPS pH 8.0, 10 mM MgCl2, 1 mM Glc1P, 2.5 mM ATP, 37°C, no Pi; read-out: A0.5
T5 construct: gene OT_ostta07g03070; heterotetramer alpha2beta2, co-expressed from pMAB5/OtaS and pMAB6/OtaL in E. coli AC70R1-504; DEAE and Resource PHE purification, no tag mentioned
T5 sequence (A0A096P9X2 entry or part of it R476K, form open): as the sequence (A0A096P9X2 entry or part of it R476K, form open) above
T5 sequence (A0A090M9E5 entry or part of it K508R, form open): as the sequence (A0A090M9E5 entry or part of it, form open) above, with K443R counted along it

OtaS/OtaL ADP-Glc PPase [6] = molecular target: T6, OtaS/OtaL ADP-Glc PPase (Ostreococcus tauri, UniProt A0A090M9E5+A0A096P9X2, A0A096P9X2:L24M/A0A090M9E5:K508R); assay: ADP-[…]Glc formation, activation curve, Hill fit; type: biochemical; set-up: gene OT_ostta07g03070; heterotetramer alpha2beta2, co-expressed from pMAB5/OtaS and pMAB6/OtaL in E. coli AC70R1-504; DEAE and Resource PHE purification, no tag mentioned; conditions: allosteric activator; 50 mM HEPPS pH 8.0, 10 mM MgCl2, 1 mM Glc1P, 2.5 mM ATP, 37°C, no Pi; read-out: A0.5
T6 sequence (A0A090M9E5 entry or part of it K508R): as the sequence (A0A090M9E5 entry or part of it, form open) above, with K443R counted along it
T6 sequence (A0A096P9X2 entry or part of it L24M): as the sequence (A0A096P9X2 entry or part of it R476K, form open) above, with L1M, K453R counted along it

OtaS/OtaL ADP-Glc PPase [7] = molecular target: T4, OtaS/OtaL ADP-Glc PPase; set-up: gene OT_ostta07g03070; conditions: read-out: I0.5; allosteric inhibitor; 3PGA present at its A0.5 (0.61 mM); 50 mM HEPPS pH 8.0, 10 mM MgCl2, 1 mM Glc1P, 2.5 mM ATP, 37°C
From the text: (§1) ADP-Glc PPase activity, inhibition curve, Hill fit on OtaS/OtaL ADP-Glc PPase

OtaS/OtaL ADP-Glc PPase [8] = molecular target: T6, OtaS/OtaL ADP-Glc PPase; set-up: gene OT_ostta07g03070; conditions: read-out: I0.5; allosteric inhibitor; 3PGA present at its A0.5 (1.6 mM); 50 mM HEPPS pH 8.0, 10 mM MgCl2, 1 mM Glc1P, 2.5 mM ATP, 37°C
From the text: as §1

O=C(O)[C@H](O)COP(=O)(O)O [3PGA]
EC50 (OtaS/OtaL ADP-Glc PPase [1]): 190 ± 10 µM | EC50 [2]: 400 ± 20 µM | EC50 [3]: 1200 ± 100 µM | EC50 (OtaS/OtaL ADP-Glc PPase [4]): 610 ± 30 µM | EC50 (OtaS/OtaL ADP-Glc PPase [5]): 740 ± 80 µM | EC50 (OtaS/OtaL ADP-Glc PPase [6]): 1600 ± 600 µM

O=P(O)(O)O [Pi]
IC50 (OtaS/OtaL ADP-Glc PPase [7]): 179 ± 4 µM | IC50 (OtaS/OtaL ADP-Glc PPase [8]): 1600 ± 200 µM
